According to ChEMBL document CHEMBL5126594, “Entry inhibition of hepatitis B virus using cyclosporin O derivatives with peptoid side chain incorporation” (Bioorg Med Chem, 2022):
Square brackets hold non-standard residues; d marks the D form. Peptide text beside a SMILES is read from it. NMeL = CN[C@@H](CC(C)C)C(=O)O; NMeV = CN[C@H](C(=O)O)C(C)C; Nva = CCC[C@H](N)C(=O)O; Sar = CNCC(=O)O

What was measured:
[1] = system: Hepatitis B virus; test: Antiviral activity against Hepatitis B virus infected in human HepG2 cells expressing NTCP assessed as inhibition of viral entry by measuring intracellular HBV DNA at 1 uM preincubated with compound for 2 hrs followed by viral infection and measured after 3 hrs by qPCR analysis relative to control; assay type: functional; settings: time 5 hrs
[2] = system: Hepatitis B virus; test: Antiviral activity against Hepatitis B virus infected in human HepG2 cells expressing NTCP assessed as inhibition of viral entry by measuring intracellular HBV DNA preincubated with compound for 2 hrs followed by viral infection and measured after 3 hrs by qPCR analysis; assay type: functional, organism-based
[3] = Cytotoxicity against human HepG2 cells assessed as reduction in cell viability incubated for 24 hrs by MTS assay; assay type: toxicity, cell-based; settings: read-out: LC50
[4] = target: T1, CYP1A2 (Homo sapiens, UniProt P05177); test: Inhibition of human CYP1A2 at 10 uM preincubated for 10 mins followed by NADPH addition and measured after 20 mins by luciferin reagent based luminescence analysis; assay type: ADME; settings: time 30 min
T1 sequence (P05177 whole entry): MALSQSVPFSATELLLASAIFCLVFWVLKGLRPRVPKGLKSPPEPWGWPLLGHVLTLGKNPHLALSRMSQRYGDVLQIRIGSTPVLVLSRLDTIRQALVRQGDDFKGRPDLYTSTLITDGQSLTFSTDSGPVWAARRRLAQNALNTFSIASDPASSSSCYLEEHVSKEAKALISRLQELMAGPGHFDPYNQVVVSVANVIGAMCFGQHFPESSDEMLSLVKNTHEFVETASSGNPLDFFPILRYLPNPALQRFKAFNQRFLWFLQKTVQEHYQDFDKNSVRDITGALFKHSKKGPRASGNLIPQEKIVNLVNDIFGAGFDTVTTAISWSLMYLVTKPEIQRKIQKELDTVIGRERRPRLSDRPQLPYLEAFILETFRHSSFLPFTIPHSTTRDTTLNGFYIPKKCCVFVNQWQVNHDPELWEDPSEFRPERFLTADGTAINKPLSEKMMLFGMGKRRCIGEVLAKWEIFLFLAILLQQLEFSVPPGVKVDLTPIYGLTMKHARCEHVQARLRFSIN

[5] = target: CYP2C19 (Homo sapiens, UniProt P33261); test: Inhibition of human CYP2C19 at 10 uM preincubated for 10 mins followed by NADPH addition and measured after 20 mins by luciferin reagent based luminescence analysis; assay type: ADME; settings: time 30 min
[6] = target: CYP2D6 (Homo sapiens, UniProt P10635); test: Inhibition of human CYP2D6 at 10 uM preincubated for 10 mins followed by NADPH addition and measured after 20 mins by luciferin reagent based luminescence analysis; assay type: ADME; settings: time 30 min
[7] = target: CYP2C9 (Homo sapiens, UniProt P11712); test: Inhibition of human CYP2C9 at 10 uM preincubated for 10 mins followed by NADPH addition and measured after 20 mins by luciferin reagent based luminescence analysis; assay type: ADME; settings: time 30 min
Sequence of CYP2C9 (P11712 whole entry): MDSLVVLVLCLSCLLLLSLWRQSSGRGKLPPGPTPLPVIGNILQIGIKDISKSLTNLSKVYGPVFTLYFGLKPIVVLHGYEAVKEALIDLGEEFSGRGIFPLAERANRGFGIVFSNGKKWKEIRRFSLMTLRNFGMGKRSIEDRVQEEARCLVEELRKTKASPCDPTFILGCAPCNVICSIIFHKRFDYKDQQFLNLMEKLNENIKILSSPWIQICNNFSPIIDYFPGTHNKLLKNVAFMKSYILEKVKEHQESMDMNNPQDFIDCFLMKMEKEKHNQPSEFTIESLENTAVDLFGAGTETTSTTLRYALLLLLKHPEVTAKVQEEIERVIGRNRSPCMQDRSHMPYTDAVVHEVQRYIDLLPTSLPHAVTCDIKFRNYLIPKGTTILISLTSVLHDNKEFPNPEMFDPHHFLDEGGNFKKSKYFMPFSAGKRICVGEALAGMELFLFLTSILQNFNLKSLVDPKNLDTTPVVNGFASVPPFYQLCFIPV

Sequence of CYP2C19 (P33261 whole entry): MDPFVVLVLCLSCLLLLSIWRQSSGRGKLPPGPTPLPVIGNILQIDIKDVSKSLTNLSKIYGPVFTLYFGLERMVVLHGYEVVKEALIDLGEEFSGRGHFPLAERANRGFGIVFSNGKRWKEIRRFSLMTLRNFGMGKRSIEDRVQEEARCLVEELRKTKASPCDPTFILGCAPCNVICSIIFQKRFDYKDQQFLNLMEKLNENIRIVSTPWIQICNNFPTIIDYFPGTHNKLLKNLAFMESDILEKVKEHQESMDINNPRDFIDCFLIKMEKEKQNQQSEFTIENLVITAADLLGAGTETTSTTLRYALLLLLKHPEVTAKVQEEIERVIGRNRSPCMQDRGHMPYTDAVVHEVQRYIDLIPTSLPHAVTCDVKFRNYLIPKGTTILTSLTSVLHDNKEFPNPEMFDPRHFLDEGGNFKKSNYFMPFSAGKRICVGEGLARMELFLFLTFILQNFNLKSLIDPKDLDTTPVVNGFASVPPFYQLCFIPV
Sequence of CYP2D6 (P10635 whole entry): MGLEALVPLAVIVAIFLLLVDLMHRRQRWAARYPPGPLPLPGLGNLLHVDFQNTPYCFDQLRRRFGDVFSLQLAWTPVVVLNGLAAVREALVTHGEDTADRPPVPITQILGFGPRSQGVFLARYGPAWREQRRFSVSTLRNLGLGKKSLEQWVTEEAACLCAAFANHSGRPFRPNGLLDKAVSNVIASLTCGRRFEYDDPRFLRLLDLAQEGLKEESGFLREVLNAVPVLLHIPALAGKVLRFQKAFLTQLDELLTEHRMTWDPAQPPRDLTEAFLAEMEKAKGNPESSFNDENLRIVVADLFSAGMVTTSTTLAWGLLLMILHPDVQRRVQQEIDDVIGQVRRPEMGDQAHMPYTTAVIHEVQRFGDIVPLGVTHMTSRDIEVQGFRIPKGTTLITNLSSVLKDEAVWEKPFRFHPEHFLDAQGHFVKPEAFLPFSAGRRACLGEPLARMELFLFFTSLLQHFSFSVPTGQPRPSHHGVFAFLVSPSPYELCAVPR

Row | Compound | inhibition at 1 µM [1] [%] | other results
1 | CCC[C@@H]1NC(=O)[C@H](CC(C)C)N(C)C(=O)[C@H](CC(C)C)N(C)C(=O)[C@H](CC(C)C)N(C)C(=O)CN(C)C(=O)[C@@H](C)NC(=O)[C@@H](CCC(N)=O)NC(=O)[C@H](CC(C)C)N(C)C(=O)[C@H](C(C)C)NC(=O)[C@H](CC(C)C)N(C)C(=O)CN(C)C1=O | 64 | –
2 | CCC[C@@H]1NC(=O)[C@H](CC(C)C)N(C)C(=O)[C@H](CC(C)C)N(C)C(=O)[C@H](CC(C)C)N(C)C(=O)[C@H](CC(C)C)N(C)C(=O)[C@@H](C)NC(=O)[C@@H](CCC(N)=O)NC(=O)[C@H](CC(C)C)N(C)C(=O)[C@H](C(C)C)NC(=O)CN(CCCCN)C(=O)CN(C)C1=O | 71 | –
3 | CCC[C@@H]1NC(=O)[C@H](CC(C)C)N(C)C(=O)[C@H](CC(C)C)N(C)C(=O)CN(CCOC)C(=O)[C@H](CC(C)C)N(C)C(=O)[C@@H](C)NC(=O)[C@@H](CCC(N)=O)NC(=O)[C@H](CC(C)C)N(C)C(=O)[C@H](C(C)C)NC(=O)[C@H](CC(C)C)N(C)C(=O)CN(C)C1=O | 52 | –
4 | CCC[C@@H]1NC(=O)[C@H](CC(C)C)N(C)C(=O)[C@H](CC(C)C)N(C)C(=O)[C@H](CC(C)C)N(C)C(=O)[C@H](CC(C)C)N(C)C(=O)[C@@H](C)NC(=O)[C@@H](CCC(N)=O)NC(=O)[C@H](CC(C)C)N(C)C(=O)[C@H](C(C)C)NC(=O)CN(CCOC)C(=O)CN(C)C1=O | 67 | –
5 | CCC[C@@H]1NC(=O)[C@H](CC(C)C)N(C)C(=O)[C@H](CC(C)C)N(C)C(=O)[C@H](CC(C)C)N(C)C(=O)[C@H](CC(C)C)N(C)C(=O)[C@@H](C)NC(=O)[C@@H](CCC(N)=O)NC(=O)[C@H](CC(C)C)N(C)C(=O)[C@H](C(C)C)NC(=O)CN(CCC(=O)O)C(=O)CN(C)C1=O | 61 | –
6 | CCC[C@@H]1NC(=O)[C@H](CC(C)C)N(C)C(=O)[C@H](CC(C)C)N(C)C(=O)[C@H](CC(C)C)N(C)C(=O)[C@H](CC(C)C)N(C)C(=O)[C@@H](C)NC(=O)[C@H](CCC(N)=O)NC(=O)[C@H](CC(C)C)N(C)C(=O)[C@H](C(C)C)NC(=O)CN(C)C(=O)CN(C)C1=O | 86 | IC50 [2]: 440 nM
7 | CCC[C@@H]1NC(=O)[C@H](CC(C)C)N(C)C(=O)[C@H](CC(C)C)N(C)C(=O)[C@H](CC(C)C)N(C)C(=O)CN(CC(C)C)C(=O)[C@@H](C)NC(=O)[C@@H](CCC(N)=O)NC(=O)[C@H](CC(C)C)N(C)C(=O)[C@H](C(C)C)NC(=O)[C@H](CC(C)C)N(C)C(=O)CN(C)C1=O | 62 | –
8 | CCC[C@@H]1NC(=O)[C@H](CC(C)C)N(C)C(=O)[C@H](CC(C)C)N(C)C(=O)CN(CCC(=O)O)C(=O)[C@H](CC(C)C)N(C)C(=O)[C@@H](C)NC(=O)[C@@H](CCC(N)=O)NC(=O)[C@H](CC(C)C)N(C)C(=O)[C@H](C(C)C)NC(=O)[C@H](CC(C)C)N(C)C(=O)CN(C)C1=O | 63 | –
9 | CCC[C@@H]1NC(=O)[C@H](CC(C)C)N(C)C(=O)[C@H](CC(C)C)N(C)C(=O)CN(CC(C)C)C(=O)[C@H](CC(C)C)N(C)C(=O)[C@@H](C)NC(=O)[C@@H](CCC(N)=O)NC(=O)[C@H](CC(C)C)N(C)C(=O)[C@H](C(C)C)NC(=O)[C@H](CC(C)C)N(C)C(=O)CN(C)C1=O | 65 | –
10 | CCC[C@@H]1NC(=O)[C@H](CC(C)C)N(C)C(=O)[C@H](CC(C)C)N(C)C(=O)[C@H](CC(C)C)N(C)C(=O)CN(CCC(=O)O)C(=O)[C@@H](C)NC(=O)[C@@H](CCC(N)=O)NC(=O)[C@H](CC(C)C)N(C)C(=O)[C@H](C(C)C)NC(=O)[C@H](CC(C)C)N(C)C(=O)CN(C)C1=O | 84 | IC50 [2]: 450 nM; CC50 at 24 h [3]: > 200000 nM
11 | CCC[C@@H]1NC(=O)[C@H](CC(C)C)N(C)C(=O)[C@H](CC(C)C)N(C)C(=O)[C@H](CC(C)C)N(C)C(=O)[C@H](CC(C)C)N(C)C(=O)[C@@H](C)NC(=O)[C@@H](CCC(N)=O)NC(=O)[C@H](CC(C)C)N(C)C(=O)[C@H](C(C)C)NC(=O)CN(CC(C)C)C(=O)CN(C)C1=O | 85 | IC50 [2]: 420 nM
12 | CCC[C@@H]1NC(=O)[C@H](CC(C)C)N(C)C(=O)[C@H](CC(C)C)N(C)C(=O)[C@H](CC(C)C)N(C)C(=O)[C@H](CC(C)C)N(C)C(=O)[C@@H](C)NC(=O)[C@@H](CCC(N)=O)NC(=O)[C@H](CC(C)C)N(C)C(=O)[C@H](C(C)C)NC(=O)CN(CCO)C(=O)CN(C)C1=O | 66 | –
13 | CCC[C@@H]1NC(=O)[C@H](CC(C)C)N(C)C(=O)[C@H](CC(C)C)N(C)C(=O)CN(C)C(=O)[C@H](CC(C)C)N(C)C(=O)[C@@H](C)NC(=O)[C@@H](CCC(N)=O)NC(=O)[C@H](CC(C)C)N(C)C(=O)[C@H](C(C)C)NC(=O)[C@H](CC(C)C)N(C)C(=O)CN(C)C1=O | 37 | –
14 | CCC[C@@H]1NC(=O)[C@H](CC(C)C)N(C)C(=O)[C@H](CC(C)C)N(C)C(=O)[C@H](CC(C)C)N(C)C(=O)CN(CCOC)C(=O)[C@@H](C)NC(=O)[C@@H](CCC(N)=O)NC(=O)[C@H](CC(C)C)N(C)C(=O)[C@H](C(C)C)NC(=O)[C@H](CC(C)C)N(C)C(=O)CN(C)C1=O | 72 | –
15 | CCC[C@@H]1NC(=O)[C@H](CC(C)C)N(C)C(=O)[C@H](CC(C)C)N(C)C(=O)CN(Cc2ccccc2)C(=O)[C@H](CC(C)C)N(C)C(=O)[C@@H](C)NC(=O)[C@@H](CCC(N)=O)NC(=O)[C@H](CC(C)C)N(C)C(=O)[C@H](C(C)C)NC(=O)[C@H](CC(C)C)N(C)C(=O)CN(C)C1=O | 62 | –
16 | CCC[C@@H]1NC(=O)[C@H](CC(C)C)N(C)C(=O)[C@H](CC(C)C)N(C)C(=O)[C@H](CC(C)C)N(C)C(=O)CN(CCO)C(=O)[C@@H](C)NC(=O)[C@@H](CCC(N)=O)NC(=O)[C@H](CC(C)C)N(C)C(=O)[C@H](C(C)C)NC(=O)[C@H](CC(C)C)N(C)C(=O)CN(C)C1=O | 59 | –
17 | CCC[C@@H]1NC(=O)[C@H](CC(C)C)N(C)C(=O)[C@H](CC(C)C)N(C)C(=O)CN(CCCCN)C(=O)[C@H](CC(C)C)N(C)C(=O)[C@@H](C)NC(=O)[C@@H](CCC(N)=O)NC(=O)[C@H](CC(C)C)N(C)C(=O)[C@H](C(C)C)NC(=O)[C@H](CC(C)C)N(C)C(=O)CN(C)C1=O | 57 | –
18 | CCC[C@@H]1NC(=O)[C@H](CC(C)C)N(C)C(=O)[C@H](CC(C)C)N(C)C(=O)[C@H](CC(C)C)N(C)C(=O)CN(CCCCN)C(=O)[C@@H](C)NC(=O)[C@@H](CCC(N)=O)NC(=O)[C@H](CC(C)C)N(C)C(=O)[C@H](C(C)C)NC(=O)[C@H](CC(C)C)N(C)C(=O)CN(C)C1=O | 69 | –
19 | CCC[C@@H]1NC(=O)[C@H](CC(C)C)N(C)C(=O)[C@H](CC(C)C)N(C)C(=O)[C@H](CC(C)C)N(C)C(=O)CN(Cc2ccccc2)C(=O)[C@@H](C)NC(=O)[C@@H](CCC(N)=O)NC(=O)[C@H](CC(C)C)N(C)C(=O)[C@H](C(C)C)NC(=O)[C@H](CC(C)C)N(C)C(=O)CN(C)C1=O | 69 | –
20 | CCC[C@@H]1NC(=O)[C@H](CC(C)C)N(C)C(=O)[C@H](C(C)C)N(C)C(=O)[C@H](CC(C)C)N(C)C(=O)[C@H](CC(C)C)N(C)C(=O)[C@@H](C)NC(=O)[C@@H](CCC(N)=O)NC(=O)[C@H](CC(C)C)N(C)C(=O)[C@H](C(C)C)NC(=O)[C@H](CC(C)C)N(C)C(=O)CN(C)C1=O | 57 | –
21 | CCC[C@@H]1NC(=O)[C@H](CC(C)C)N(C)C(=O)[C@H](CC(C)C)N(C)C(=O)[C@H](CC(C)C)N(C)C(=O)[C@H](CC(C)C)N(C)C(=O)[C@@H](C)NC(=O)[C@@H](CCC(N)=O)NC(=O)[C@H](CC(C)C)N(C)C(=O)[C@H](C(C)C)NC(=O)CN(Cc2ccccc2)C(=O)CN(C)C1=O | 36 | –
22 | CCC[C@@H]1NC(=O)[C@H](CC(C)C)N(C)C(=O)[C@H](C(C)C)N(C)C(=O)[C@H](CC(C)C)N(C)C(=O)[C@H](CC(C)C)N(C)C(=O)[C@@H](C)NC(=O)[C@H](C)NC(=O)[C@H](CC(C)C)N(C)C(=O)[C@H](C(C)C)NC(=O)[C@H](CC(C)C)N(C)C(=O)CN(C)C1=O (cyclo(A[dA][NMeL][NMeL][NMeV][NMeL][Nva][Sar][NMeL]V[NMeL])) | 75 | IC50 [2]: 510 nM; CC50 at 24 h [3]: > 200000 nM
23 | O=c1cc(-c2ccccc2)oc2c1ccc1ccccc12 [ALPHA-NAPHTHOFLAVONE] | – | inhibition at 20 min, 10 µM [4]: 97.1%
24 | CN(C)CCC=C1c2ccccc2CCc2ccccc21 [AMITRIPTYLINE] | – | inhibition at 20 min, 10 µM [5]: 92.1%
25 | C/C=C/C[C@@H](C)[C@@H](O)[C@H]1C(=O)N[C@@H](CC)C(=O)N(C)CC(=O)N(C)[C@@H](CC(C)C)C(=O)N[C@@H](C(C)C)C(=O)N(C)[C@@H](CC(C)C)C(=O)N[C@@H](C)C(=O)N[C@H](C)C(=O)N(C)[C@@H](CC(C)C)C(=O)N(C)[C@@H](CC(C)C)C(=O)N(C)[C@@H](C(C)C)C(=O)N1C [CYCLOSPORINE] | 83 | IC50 [2]: 400 nM
26 | C=C[C@H]1C[N@@]2CC[C@H]1C[C@@H]2[C@@H](O)c1ccnc2ccc(OC)cc12 [QUINIDINE] | – | inhibition at 20 min, 10 µM [6]: 97.5%
27 | Nc1ccc(S(=O)(=O)Nc2ccnn2-c2ccccc2)cc1 [SULFAPHENAZOLE] | – | inhibition at 20 min, 10 µM [7]: 94.4%
